Test results published in ChEMBL document CHEMBL1944562, “Design, synthesis of some new (2-aminothiazol-4-yl)methylester derivatives as possible antimicrobial and antitubercular agents” (2012).
Converted amounts (≈) assume the structure as drawn.

What follows are molecules tested on Mycobacterium tuberculosis (assay: Antitubercular activity against Multidrug-resistant Mycobacterium tuberculosis after 7 days by resazurin assay). Settings: 168 h.
Type: functional
In the case of Nc1nc(COC(=O)C2(c3ccc(Cl)cc3)CC2)cs1, the MIC is reported as > 50 µg/mL.
Nc1nc(COC(=O)Cc2cccc(C(F)(F)F)c2)cs1 gave an MIC of 6.25 µg/mL (≈ 19.8 µM).
In the case of Nc1nc(COC(=O)Cc2ccccc2OC(F)(F)F)cs1, the MIC is reported as > 50 µg/mL.
With Nc1nc(COC(=O)c2cc(F)cc(C(F)(F)F)c2)cs1 the MIC was > 50 µg/mL.
With N#CCCc1cccc(C(=O)OCc2csc(N)n2)c1 the MIC was 6.25 µg/mL (≈ 21.8 µM).
For N#Cc1ccccc1C(=O)OCc1csc(N)n1, the MIC was > 50 µg/mL.
With Nc1nc(COC(=O)c2cccs2)cs1 the MIC was > 50 µg/mL.
Work on Nc1nc(COC(=O)c2cccc([N+](=O)[O-])c2Cl)cs1 yielded an MIC of 6.25 µg/mL (≈ 19.9 µM).
Nc1nc(COC(=O)c2c(F)cccc2Cl)cs1 was tested, and the MIC was 6.25 µg/mL (≈ 21.8 µM).
Work on Nc1nc(COC(=O)c2c(F)cc(F)cc2F)cs1 yielded an MIC of 25 µg/mL (≈ 86.7 µM).
In the case of Nc1nc(COC(=O)c2ccc3ccccc3c2)cs1, the MIC is reported as > 50 µg/mL.
Nc1nc(COC(=O)c2ccc([N+](=O)[O-])cc2)cs1 showed an MIC of 1.25 µg/mL (≈ 4.48 µM).
With Nc1nc(COC(=O)c2c(Cl)cc(Cl)cc2Cl)cs1 the MIC was > 50 µg/mL.
With N#Cc1cccc(C(=O)OCc2csc(N)n2)n1 the MIC was > 50 µg/mL.
Nc1nc(COC(=O)c2ccc(Br)cc2)cs1 was tested, and the MIC was 2.5 µg/mL (≈ 7.98 µM).
In the case of Nc1nc(COC(=O)c2ccccc2[N+](=O)[O-])cs1, the MIC is reported as 12.5 µg/mL (≈ 44.8 µM).
NNC(=O)c1ccncc1 [ISONIAZID] showed an MIC of 12.5 µg/mL (≈ 91.1 µM).
CO[C@H]1/C=C/O[C@@]2(C)Oc3c(C)c(O)c4c(O)c(c(/C=N/N5CCN(C)CC5)c(O)c4c3C2=O)NC(=O)/C(C)=C\C=C\[C@H](C)[C@H](O)[C@@H](C)[C@@H](O)[C@@H](C)[C@H](OC(C)=O)[C@@H]1C [RIFAMPIN] gave an MIC of 25 µg/mL (≈ 30.4 µM).
